Results reported in patent publication US20250262263A1, “METHOD AND COMPOSITIONS FOR THE USE OF BOTANICAL EXTRACTS IN THE TREATMENT OF VIRAL INFECTIONS” (priority 2024, published 2025).

System: VACV
Type: cell-based, vaccinia virus
Settings: 100 pfu VACV, 48 HPI

For `C=C(C)[C@@H]1CC[C@]2(C)CC[C@]3(C)[C@H](CC[C@@H]4[C@@]5(C)CC[C@H](O)C(C)(C)[C@@H]5CC[C@]43C)[C@@H]12` [lupeol], the “antiviral activity (VACV plaques)” value was “did not show suitable antiviral activity”.
